The source of these data is patent US20190125648A1, “COMPOSITION FOR PREVENTING, IMPROVING OR TREATING HAIR LOSS COMPRISING DEOXYCHOLIC ACID AS ACTIVE INGREDIENT” (priority 2016, published 2019).

In this assay the test system is B6CBAF1/j hybrid mice. As to the kind of experiment: Testosterone-induced hair loss in mice: hair loss area and follicle count. Conditions: after two weeks; testosterone 10 mg/ml + each test substance 1 mg/ml; compared to testosterone alone (group T); FIG. 3. Format: in vivo. As to the method: B6CBAF1/j hybrid mice (5 weeks old, male, Charles River Japan) were acclimated for one week in a breeding room and then used from the time of 6 weeks after birth.
For use in an injection agent, a solvent was prepared to contain 15% of ethanol, 5% of NMP, and 80% of PBS. Solutions were prepared by mixing the solvent with the following solutes: group T (testosterone 10 mg/ml), group TD (testosterone 10 mg/ml+deoxycholic acid 1 mg/ml), group TR (testosterone 10 mg/ml+resveratrol 1 mg/ml), group TF (testosterone 10 mg/ml+finasteride 1 mg/ml), and group TRF (testosterone 10 mg/ml+resveratrol 1 mg/ml+finasteride 1 mg/ml).
The animals were anesthetized with isoflurane through inhalation and injected subcutaneously at the neck with 100 μl of a testosterone solution (10 mg/ml) every day. From a couple of weeks, they were photographed along with a scale bar to quantify a hair loss area. After six weeks of testing, the mice were sacrificed by means of a CO2 incubator. Test areas of the skin were taken, fixed with formalin, and prepared into paraffin blocks. The blocks were horizontally sectioned and dyed with H&E (Hematoxylin & Eosin) to count follicles per mm^2.

Each structure is given as a SMILES string.

As for `Oc1ccc(C=Cc2cc(O)cc(O)c2)cc1` [resveratrol], the “increment in hair loss area” value was “greatly reduced”.
